# Reference: PubChem BioAssay AID1963978 (Molecular Pharmacology Branch, DTP, NCI, 2024)
# Test system: 616215-338-R-J1-PDC spheroids with HUVEC/MSC, viability
# Assay: Anticancer human tumor 616215-338-R-J1-PDC patient-derived colon adenocarcinoma cell line growth inhibition [PI3K]
# Details: for IC50: curve of first compound; for viability, T/C: stronger effect = lower value
# In short: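 Multi-cell spheroids combine tumor cells with HUVEC and human MSCs, treated with targeted agents alone or with inavolisib, alpelisib, duvelisib or copanlisib. Concentrations fall in half-log steps from at or near clinical Cmax, or from 10 microM where Cmax is unknown; viability read-out.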
# 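Further: spheroids exposed to agents for seven days before the viability read.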
smiles,measurement,setting,value
C#Cc1c(F)ccc2cc(O)cc(-c3ncc4c(N5CC6CCC(C5)N6)nc(OCC56CCCN5CC(F)C6)nc4c3F)c12 (configuration not stated) + CC(Nc1ncnc2nc[nH]c12)c1cc2cccc(Cl)c2c(=O)n1-c1ccccc1,IC50,second compound 0.0316 µM,> 10 µM
same,IC50,second compound 0.1 µM,> 10 µM
same,IC50,second compound 0.316 µM,> 10 µM
same,IC50,second compound 1 µM,> 10 µM
same,IC50,second compound 3.16 µM,> 10 µM
same,IC50,second compound 10 µM,> 10 µM
same,"viability, T/C","second compound 0.0316 µM, first compound 0.0316 µM",99.5%
same,"viability, T/C","second compound 0.0316 µM, first compound 0.1 µM",93.7%
same,"viability, T/C","second compound 0.0316 µM, first compound 0.316 µM",102%
same,"viability, T/C","second compound 0.0316 µM, first compound 1 µM",109%
same,"viability, T/C","second compound 0.0316 µM, first compound 3.16 µM",109%
same,"viability, T/C","second compound 0.0316 µM, first compound 10 µM",73.3%
same,"viability, T/C","second compound 0.1 µM, first compound 0.0316 µM",102%
same,"viability, T/C","second compound 0.1 µM, first compound 0.1 µM",110%
same,"viability, T/C","second compound 0.1 µM, first compound 0.316 µM",98.5%
same,"viability, T/C","second compound 0.1 µM, first compound 1 µM",99.8%
same,"viability, T/C","second compound 0.1 µM, first compound 3.16 µM",102%
same,"viability, T/C","second compound 0.1 µM, first compound 10 µM",81.3%
same,"viability, T/C","second compound 0.316 µM, first compound 0.0316 µM",111%
same,"viability, T/C","second compound 0.316 µM, first compound 0.1 µM",97.7%
same,"viability, T/C","second compound 0.316 µM, first compound 0.316 µM",98.2%
same,"viability, T/C","second compound 0.316 µM, first compound 1 µM",99.8%
same,"viability, T/C","second compound 0.316 µM, first compound 3.16 µM",104%
same,"viability, T/C","second compound 0.316 µM, first compound 10 µM",68.2%
same,"viability, T/C","second compound 1 µM, first compound 0.0316 µM",100%
same,"viability, T/C","second compound 1 µM, first compound 0.1 µM",110%
same,"viability, T/C","second compound 1 µM, first compound 0.316 µM",108%
same,"viability, T/C","second compound 1 µM, first compound 1 µM",104%
same,"viability, T/C","second compound 1 µM, first compound 3.16 µM",122%
same,"viability, T/C","second compound 1 µM, first compound 10 µM",74.7%
same,"viability, T/C","second compound 3.16 µM, first compound 0.0316 µM",111%
same,"viability, T/C","second compound 3.16 µM, first compound 0.1 µM",97.7%
same,"viability, T/C","second compound 3.16 µM, first compound 0.316 µM",103%
same,"viability, T/C","second compound 3.16 µM, first compound 1 µM",107%
same,"viability, T/C","second compound 3.16 µM, first compound 3.16 µM",98.4%
same,"viability, T/C","second compound 3.16 µM, first compound 10 µM",58.4%
same,"viability, T/C","second compound 10 µM, first compound 0.0316 µM",104%
same,"viability, T/C","second compound 10 µM, first compound 0.1 µM",108%
same,"viability, T/C","second compound 10 µM, first compound 0.316 µM",109%
same,"viability, T/C","second compound 10 µM, first compound 1 µM",105%
same,"viability, T/C","second compound 10 µM, first compound 3.16 µM",95%
same,"viability, T/C","second compound 10 µM, first compound 10 µM",62.5%
